According to patent US9943485B2, “Bioactive compounds protection method and compositions containing the same” (priority 2003, dated 2018):

Key:
[1] = Effects of feed formula enriched with encapsulated insulin on lambs' weight gain, disease incidence and death rate; assay type: in vivo, Assaf specie lambs; settings: one study
From the text: More than 1,000 Assaf specie lambs over a period of 12 months at the age of 2-3 days from birth, were used. The growing period was divided into two periods: 3-28 days from birth, during which the lambs were exclusively fed by a milk replacer; and 29-75 days from birth, during which the lambs were fed by post-weaning mix/mash. Lambs in the study groups received between 600 MicroUnits-3,000 MicroUnits of insulin/ml. of milk replacer, and between 1,600 MicroUnits-5,000 MicroUnits of insulin/gr. of mix/mash.
A liquid blend, of 4 Kilograms of Maltodextrin, 40 Liters of Saline 0.9% and 100,000 IU (International Units) of insulin was blended (e.g., 25 IU insulin per 1 g of Maltodextrin). The liquid blend was then freeze-dried. The product of the process was maltodextrin encapsulated insulin. 97% of the bioactive properties of the insulin were maintained after the freeze-drying process. A premix of 10 Kg. was prepared from standard milk powder and the maltodextrin encapsulated insulin. The premix was then blended with 740 Kg. of standard milk replacer product, to generate 750 Kg. of insulin enriched commercial milk replacer.

[2] = Effects of dietary insulin in milk replacer on weight gain in bovine neonates; assay type: in vivo, Friesy and Charole' calves; settings: calves, 600 MicroUnits insulin/cc of liquid milk replacer
From the text: 100 Friesy and Charole' calves in ages 12-15 days from birth, were used. Each calf received a milk replacer, of up to 6 liters a day, until the 37th day from birth. From the 37th day, milk replacer quantity was reduced by 0.5 liters every 2 days while simultaneously, pellet quantity increased, until the calf's 57 days old, when it is considered fully weaned. Calves in the experimental group receive 600 MicroUnits/cc. of liquid milk replacer. Calves in the control group receive no insulin at all. Daily growth in grams per each 1 Kg. of birth weight was measured and calculated for each calf.

insulin
lambs survived at marketing ([1]; insulin fed group started with 70 newly born lambs, 150 days after birth): 68 lambs | death rate ([1]; insulin fed group, 70 lambs, at marketing (150 days after birth)): 2.8% | death rate lower compared with the control group ([1]; insulin-fed group 2.8% vs control 11.6% death rate): 74.8% | average daily weight growth in grams per each Kg. of birth weight ([2]; at the end of the study period): 22.47 g/Kg birth weight | more weight gained compared with the control group ([2]; between day 17 and day 67 after birth): up to 26%
